Data from PubChem BioAssay AID1985 (Southern Research Specialized Biocontainment Screening …, 2009).
pIC50: −log10 of the molar value. Several values for one entry are separate records, joined by “and”; a condition that tells them apart may be missing. Identical values can stand only once.

Each molecule was assayed on S. Typhi PhoP-promoter GFP reporter, fluorescence, 4 h (assay: modified counter assay using GFP fluorescence, PhoP regulon inhibitor project, dose response (AID 1985)).
In the case of Cc1ccc(C(=O)N/N=C\c2sccc2C)cn1, the pIC50 was 3.89.
In the case of CC1=NN(c2nc3ccccc3[nH]2)C(=O)C1Cc1ccccc1 (configuration not stated), the pIC50 was 4.44.
O=[N+]([O-])c1cc(/C=N/Nc2nc3ccccc3[nH]2)c(O)cc1O was tested, and the pIC50 was 4.61.
Work on O=C(Nc1c(Cl)ccc2nsnc12)c1ccc([N+](=O)[O-])o1 yielded a pIC50 of 4.25.
With CN(C)CCCN(C(=O)CCc1ccccc1)c1nc2ccc(Br)cc2s1 the pIC50 was 3.96.
For O=C(N/N=C/c1cc([N+](=O)[O-])ccc1O)c1cccc2cc[nH]c12, the pIC50 was 4.04.
With Cc1c(CCOC(=O)C2C3CC4CC(C3)CC2C4)sc[n+]1CC(=O)c1ccc(Br)cc1 (configuration not stated) the pIC50 was 4.25.
For OC1CNCc2cc3c(cc21)OCCO3 (configuration not stated), the pIC50 was 4.09.
For O=C(N/N=C\c1ccc(Cl)s1)c1cccs1, the pIC50 was 4.48.
N#C/C(=C(/O)c1ccco1)c1nc2ccccc2s1 showed a pIC50 of 4.26.
O=C(N/N=C/c1cc(Br)ccc1O)c1ccncc1 gave a pIC50 of 4.52.
C#CCOCCOCCOCCNc1nc(N2CCN(C(=O)[C@H](Cc3ccc(O)cc3)n3cc([C@@H](N)CC(C)C)nn3)CC2)nc(N2CCN(C(=O)[C@H](Cc3ccc(O)cc3)n3cc([C@@H](N)CC(C)C)nn3)CC2)n1 gave a pIC50 of 3.95.
Work on COc1c(N2CCNC(C)C2)c(F)cc2c(=O)c(C(=O)O)cn(C3CC3)c12 (configuration not stated) yielded a pIC50 of over 6.64.
O=C(N/N=C/c1cc(Br)cc(Br)c1O)c1ccncc1 was tested, and the pIC50 was 4.46.
O=C(C[n+]1cc(-c2ccc(Cl)c(Cl)c2)n2c1CCC2)N1c2ccccc2Sc2ccccc21 gave a pIC50 of 4.11.
For COc1ccc(OCc2n(CC(=O)OC3CC(C)CCC3C(C)C)c3ccccc3[n+]2C)cc1 (configuration not stated), the pIC50 was 4.09.
Molecule Cc1cc(O)c2c(c1)C(=O)C13C(=C2O)C(=O)[C@H]2[C@@H](O)[C@@H]1[C@H]1[C@H](O)[C@@H]3C(=O)C3=C(O)c4c(O)cc(C)cc4C(=O)C312 (some centres not stated) has a pIC50 of 4.72.
Oc1c(Br)cc(Br)cc1C=NCc1ccccc1 was tested, and the pIC50 was 4.30.
For COc1cc2c(cc1OC)[C@H](Cc1ccc(O)cc1)NCC2, the pIC50 was 4.06.
CN1CCN(c2ccc(NC(=O)c3ccc(-c4ccc(Br)cc4)o3)cc2)CC1 was tested, and the pIC50 was 4.08.
O=C(N/N=C/c1c[nH]c2ccccc12)c1ccc(Cl)cc1 showed a pIC50 of 3.91.
O=C(Nc1ccc(Cl)cc1)Nc1ccc2c(c1)N1CCN=C1S2 showed a pIC50 of 4.24.
With Cc1ccc(Cn2c(=N)n(CC(O)COc3ccccc3)c3ccccc32)cc1 (configuration not stated) the pIC50 was 4.08.
CCc1ccc2c(c1)C1(NN=C(c3ccc(C)cc3)S1)C(=O)N2 (configuration not stated) showed a pIC50 of 4.61.
For Cc1ccc2c(c1)c1c(n2CC(O)CNC2CCCCC2)CCCC1 (configuration not stated), the pIC50 was 3.87.
Work on CCCCCCCCCCC[N+](C)(C)CC/C=C1/c2ccccc2Sc2ccc(Cl)cc21 yielded a pIC50 of 4.50.
O=[N+]([O-])c1cc(Cl)cc(/C=N/NC(=S)Nc2ccc(S(=O)(=O)N3CCOCC3)cc2)c1O showed a pIC50 of 4.33.
Molecule O=C(C[n+]1cccc(CNC(=O)c2ccc(OC(F)F)cc2)c1)Nc1ccc(SC(F)F)cc1 has a pIC50 of 4.38.
Molecule O=C(Nc1ccc2nc(-c3ccc(Br)o3)[nH]c2c1)c1cccs1 has a pIC50 of 4.10.
In the case of C[C@H]1COc2c(C3(N)CC3)c(F)cc3c(=O)c(C(=O)O)cn1c23, the pIC50 was over 6.64.
OCCNCc1cc(Br)ccc1OCc1ccc(Cl)cc1 was tested, and the pIC50 was 3.92.
CCCCCCCCCCCCCCCCn1cc[n+](C)c1 showed a pIC50 of 4.72.
Cc1ccc2c(c1)C1CN(C)CCC1N2Sc1ccccc1[N+](=O)[O-] (configuration not stated) gave a pIC50 of 3.87.
Work on COc1ccc(C(=O)NNC(=S)NC(=O)c2ccccc2)cc1 yielded a pIC50 of 4.08.
For CCCCCCCCNC(C)C(O)c1ccc(SC(C)C)cc1 (configuration not stated), the pIC50 was 4.38.
CCCCN(CCCC)C(=O)c1cn(CC)c2cc(N3CCN(C)CC3)c(F)cc2c1=O was tested, and the pIC50 was 5.13.
For O=C(CC1NCCc2ccccc21)Nc1ccc(Oc2ccccc2)cc1 (configuration not stated), the pIC50 was 4.10.
In the case of Cc1ccc(C(OCC(O)CNCc2ccc(F)cc2)c2ccccc2)cc1 (configuration not stated), the pIC50 was 4.13.
In the case of COc1cc(CNCCO)cc(Cl)c1OCc1ccc(Cl)cc1Cl, the pIC50 was 4.41.
Work on O=C(OCC(=O)N1CCOCC1)c1ccc[nH]c1=O yielded a pIC50 of 4.97.
Cc1cc(C)n(-c2nc(SCCN(C)C)c3c4c(sc3n2)CCCC4)n1 showed a pIC50 of 4.10.
CCn1cc(C(=O)O)c(=O)c2cc(F)c(N3CCN(C(=S)NC(=O)c4ccccc4F)CC3)cc21 gave a pIC50 of 4.20.
Work on O=Cc1ccc(O)cc1O yielded a pIC50 of 3.96.
CO[C@H]1/C=C/O[C@@]2(C)Oc3c(C)c(O)c4c(O)c(c(C=NN5CCN(C)CC5)c(O)c4c3C2=O)NC(=O)/C(C)=C\C=C\[C@H](C)[C@H](O)[C@@H](C)[C@@H](O)[C@@H](C)[C@H](OC(C)=O)[C@@H]1C was tested, and the pIC50 was 4.49.
For Cc1ccc(OCC(=O)N/N=C/c2ccc([N+](=O)[O-])o2)cc1, the pIC50 was 4.54.
CCCOc1ccc(S(=O)(=O)n2cc(F)c(=O)[nH]c2=O)cc1 was tested, and the pIC50 was 4.38.
For CN1C(=O)NC(c2ccc(O)cc2)C(C(=O)c2cccs2)C1(O)C(F)(F)F (configuration not stated), the pIC50 was 4.70.
In the case of O=C(CNC(=O)c1cccc(F)c1)N/N=C/c1ccc([N+](=O)[O-])s1, the pIC50 was 4.62.
With O=C(Nc1nnc(C(F)(F)F)s1)c1ccc(Br)s1 the pIC50 was 4.18.
Work on Cc1cc(NC2CCCCC2)nc(NCc2ccccc2)n1 yielded a pIC50 of 4.11.
For O=C(c1cnn(C(=O)COc2ccccc2F)c1)c1cc(F)ccc1O, the pIC50 was 4.08.
In the case of Cn1c(N/N=C/c2c[nH]c3ccccc23)nc2ccccc21, the pIC50 was 3.95.
With NC(=O)SCC(=O)Nc1ccc(Cl)cc1 the pIC50 was 4.35.
Molecule CN(C)c1ccc(/C=C/c2ccc3ccccc3[n+]2C)cc1 has a pIC50 of 4.71.
With Clc1ccc2[nH]c3c(c2c1)CCc1cn[nH]c1-3 the pIC50 was 4.13.
In the case of CN1CCN(CCCN2c3ccccc3Sc3ccc(C(F)(F)F)cc32)CC1, the pIC50 was 3.91.
Work on N=c1c2c(n(Cc3ccc(Cl)cc3Cl)c3c1CCC3)CCCC2 yielded a pIC50 of 4.09.
Work on COc1ccc(/C=C/c2cc[n+](C(=O)Cc3ccccc3)cc2)cc1 yielded a pIC50 of 3.97.
With O=C(CCc1ccccc1)NNC(=S)NC(=O)c1ccccc1 the pIC50 was 3.91.
Cc1cccc(OCC(O)Cn2c(=N)n(CCN3CCCCC3)c3ccccc32)c1 (configuration not stated) was tested, and the pIC50 was 4.30.
With Oc1c(Br)cc(Br)cc1C=NCc1ccc(F)cc1 the pIC50 was 4.26.
Work on CCn1cc(C(=O)NCCN(C)C)c(=O)c2cc(F)c(N3CCN(C)CC3)cc21 yielded a pIC50 of 4.47.
With CCN(CC)CCNc1nc(-c2ccc(OC)cc2)c(-c2ccc(OC)cc2)s1 the pIC50 was over 6.64.
Molecule CCc1ccc(NC(=O)Nc2ccncc2)cc1 has a pIC50 of 4.29.
Fc1ccc(Nc2ccnc(Nc3ccc(F)cc3)n2)cc1 showed a pIC50 of 4.41.
Work on Cc1ccc(-c2ccccc2NC(=O)CS(=O)CC(=O)Nc2ccc(C)c(Cl)c2)o1 (configuration not stated) yielded a pIC50 of 4.33.
O=C(CN1CC[n+]2c(-c3cccs3)csc21)c1ccc(-c2ccccc2)cc1 gave a pIC50 of 4.47.
In the case of COc1cc(CNCCc2c[nH]c3ccccc23)ccc1OCc1ccc(F)cc1, the pIC50 was 4.08.
Cc1occc1C(=O)N/N=C/C=C/c1ccccc1 was tested, and the pIC50 was 4.38.
Molecule CCCCCCCCCCOC(=O)Cn1c(COc2ccccc2OC)[n+](C)c2ccccc21 has a pIC50 of 4.60.
Molecule C/C(=N/Nc1ccnc2cc(Cl)ccc12)c1ccc(N)cc1 has a pIC50 of 4.26.
In the case of Cc1ccc(-c2c[n+](CC(=O)Nc3nc(-c4ccccc4)cs3)c3n2CCC3)cc1, the pIC50 was 4.04.
O=C1c2ccccc2C2=Nc3ccccc3SC(c3ccccc3F)C12 (configuration not stated) gave a pIC50 of 4.68.
Molecule O=Nc1ccc(O)c2ncccc12 has a pIC50 of 4.61.
Molecule NC(N)=Nc1nc(-c2ccccc2)c2cc(Cl)ccc2n1 has a pIC50 of 4.01.
In the case of Cc1cc(C)nc(SCC(=O)Nc2sc3c(c2C#N)CCC(C)C3)n1 (configuration not stated), the pIC50 was 4.38.
Cc1ccc(C(c2cc(Cl)c3cccnc3c2O)N2CCN(C)CC2)cc1 (configuration not stated) gave a pIC50 of 4.32.
Work on CS(=O)(=O)c1ccc([C@@H](O)[C@@H](CO)NC(=O)C(Cl)Cl)cc1 yielded a pIC50 of 4.71.
Molecule Cc1ccc(Nc2nc(N)c3ccccc3n2)cc1Cl has a pIC50 of 4.16.
Molecule CCCCCCCCCCCCCCCC[N+](C)(C)C has a pIC50 of 4.71.
Work on CCN1CCc2c(C#N)c(NCc3ccccc3)nc(NCCO)c2C1 yielded a pIC50 of 3.85.
Molecule CC1CC(=O)c2c(cc3c(-c4c(O)cc(O)c5c(O)c6c(cc45)OC(C)CC6=O)c(O)cc(O)c3c2O)O1 (configuration not stated) has a pIC50 of 4.57.
CCCNC1=C(C)C(=O)C2=C(C1=O)C(COC(N)=O)[C@]1(OC)C3NC3CN21 (some centres not stated) was tested, and the pIC50 was 4.29.
In the case of NC1=NC[C@H](c2ccccc2)N1CCc1cc(C(F)(F)F)cc(C(F)(F)F)c1, the pIC50 was 4.25.
O=C(Cc1ccccc1)N/N=C/c1cc(Br)cc(Cl)c1O showed a pIC50 of 4.35.
In the case of CCOC(=O)N/N=C(/C)c1ccc([N+](=O)[O-])o1, the pIC50 was 4.34.
Cc1cc([N+](=O)[O-])nn1CC(=O)N/N=C/c1ccccc1O was tested, and the pIC50 was 4.45.
CC(C)(C)CC(C)(C)c1ccc(OCCOCC[N+](C)(C)Cc2ccccc2)cc1 gave a pIC50 of 4.46.
O=C(N/N=C/c1ccc([N+](=O)[O-])s1)c1cccnc1 was tested, and the pIC50 was 4.64.
For O=C(N/N=C/c1ccccc1O)C1SCCCS1, the pIC50 was 4.08.
O=C(CSc1nnc(-c2ccccc2)n1-c1ccc(Cl)cc1)NC1CCS(=O)(=O)C1 (configuration not stated) gave a pIC50 of 4.51.
With C/C(Cn1nnc([N+](=O)[O-])n1)=N\NC(=O)c1ccccc1 the pIC50 was 3.83.
c1ccc2oc(-c3csc(NCC4CCCO4)n3)cc2c1 (configuration not stated) showed a pIC50 of 3.85.
Oc1ccccc1C(Nc1nccs1)c1ccc2cccnc2c1O (configuration not stated) showed a pIC50 of 4.46.
CN1CCN(C(c2ccc(Br)cc2)c2cc(Cl)c3cccnc3c2O)CC1 (configuration not stated) gave a pIC50 of 4.47.
Nc1ncncc1-c1ccc(Cl)cc1 was tested, and the pIC50 was 3.88.
With CCCCCCCCCn1c2c(c(=N)c3c1CCC3)CCC2 the pIC50 was 4.44.
COc1cccc(Nc2cc(C)nc3ccccc23)c1 showed a pIC50 of 4.01.
For [O-][n+]1c2ccccc2cc2ccccc21, the pIC50 was 4.06.
CN1CCN(c2c(F)cc3c(=O)c(C(=O)O)cn4c3c2SCC4)CC1 was tested, and the pIC50 was 5.50 and 5.46.
Work on O=C(Nc1cccc(Br)c1)c1cc2ccccc2o1 yielded a pIC50 of 4.32.
In the case of Cc1cc(/C=C\c2ccc3cc(N(C)C)ccc3[n+]2C)c(C)n1-c1ccccc1, the pIC50 was 4.49.
Clc1cc(Br)ccc1OCCCNCc1ccccc1 showed a pIC50 of 4.34.
For Cc1ccc(Nc2cc(C)nn2-c2nc(C)cc(=O)[nH]2)cc1, the pIC50 was 4.99.
With N#C/C(=N\Nc1ccc([N+](=O)[O-])cc1)C(N)=S the pIC50 was 3.96.
N/C(=N\OS(=O)(=O)c1ccc(Cl)cc1)c1cccnc1 was tested, and the pIC50 was 4.04.
NC1=NC[C@H](c2ccccc2)N1CCCCC1CCCCC1 was tested, and the pIC50 was 4.41.
With COc1ccc(NC2=NC3(CCCCC3)N=C(N)N2)cc1 the pIC50 was 3.85.
Molecule COc1ccccc1CNCCc1ccc(F)cc1 has a pIC50 of 4.44.
With Oc1cccc(C=NCc2ccccc2)c1O the pIC50 was 4.24.
Molecule CNC[C@H](Cc1ccccc1)NC[C@@H](Cc1cccc2ccccc12)NCCc1ccc(C)cc1 has a pIC50 of 4.71.
C#CCOCCOCCOCCNc1nc(N2CCN(C(=O)CCCCCCCCCCNC(=O)Cn3cc(CCCCCN)nn3)CC2)nc(N2CCN(C(=O)CCCCCCCCCCNC(=O)[C@H]([C@@H](C)CC)n3cc(CCCCN=C(N)N)nn3)CC2)n1 gave a pIC50 of 4.43.
